Values quoted from earlier work as cited in article PMC12359172, “Cell and tissue reprogramming: Unlocking a new era in medical drug discovery” (Pharmacological Reviews, 2025).

Legend:
[1] = system: AMD iPSC-derived RPE cells; design: method as in PMID 35056119, PMID 33918210; conditions: ref [431],[432]
[2] = system: human dermal fibroblasts / primary human cardiac fibroblasts; conditions: for effect on cardiac fibroblast reprogramming: alongside MEF2C and TBX5 (MT), chemical screen of 2000 compounds, ref [472]; for reprogramming efficiency: HDF with GATA4, MEF2C, TBX5, MYOCD, NKX2-5, miR-1 and miR-133a plus small molecules, ref [468]
[3] = design: method as in PMID 10066283, PMID 9704384; conditions: ref [843],[844]
[4] = system: Müller glia (MG); conditions: NMDA-induced injury, intraperitoneal injection as printed; ref [333]
[5] = system: skin fibroblasts from patients with ALS, HFFs, FAD fibroblasts; conditions: human induced motor neuron model, chemical screen; ref [508]
[6] = design: method as in PMID 32392694, PMID 27490705; conditions: ref [392],[393]
[7] = system: SMA iPSC-derived motor neurons; design: method as in PMID 19098894; conditions: ref [391]
[8] = system: iPSC-derived cardiac organoid; design: method as in PMID 32284552; conditions: ref [442]
[9] = system: iPSC-derived cardiomyocytes (KCNQ1/TRPM4 mutation); conditions: ref [413]
[10] = system: YAP; design: method as in PMID 33888614; conditions: ref [139]

For `NC(=O)c1ncn([C@@H]2O[C@H](COP(=O)(O)O)[C@@H](O)[C@H]2O)c1N` [5-aminoimidazole-4-carboxamide ribonucleotide], the “effect on mitochondrial function” value [1] is given as “improved mitochondrial function”.
In the case of `CCS(=O)(=O)N1CC(CC#N)(n2cc(-c3ncnc4[nH]ccc34)cn2)C1` [Baricitinib], the “effect on cardiac fibroblast reprogramming” value [2] is given as “significantly improved reprogramming efficiency and promoted spontaneous contractile activity”.
For `O=c1[nH]c(=O)n([C@H]2C[C@H](O)[C@@H](CO)O2)cc1Br` [BrdU, bromodeoxyuridine], the developmental toxicity [3] is given as “dose-dependent genetic and neurologic developmental defects”.
For `Cc1c[nH]c(-c2cnc(NCCNc3ccc(C#N)cn3)nc2-c2ccc(Cl)cc2Cl)n1` [CHIR99021], the reprogramming efficiency [2] is given as less than 25%.
In the case of `COCCOc1ccc(-c2cn(-c3ccccc3)c3nc[nH]c(=O)c23)cc1` [DMX-5804], the “effect on Müller glia” value [4] is given as “promoted MG proliferation and conversion to a retinal progenitor cell–like state”.
For `CC(C)(C)c1nc2c3cc[nH]c(=O)c3c3cc(F)ccc3c2[nH]1` [JAK1 inhibitor (EMD4Biosciences; 420099)], the reprogramming efficiency [2] is given as less than 25%.
In the case of `O=C1Cc2c([nH]c3ccc(Br)cc23)-c2ccccc2N1` [Kenpaullone], the “rescue of ALS-specific disease characteristics” value [5] is listed as “rescuing ALS-specific disease characteristics, including restoring electrophysiological activity and the ability to form NMJs”.
In the case of `CN(C)C(=N)N=C(N)N` [Metformin], the “effect on mitochondrial function” value [1] is given as “improved mitochondrial function”.
In the case of `NC(=O)c1ccc(-c2nc(-c3ccc4c(c3)OCO4)c(-c3ccccn3)[nH]2)cc1` [SB431542], the “effect on cardiac fibroblast reprogramming” value [2] is given as “significantly improved reprogramming efficiency and promoted spontaneous contractile activity”.
For `CCCC(CCC)C(=O)O` [VPA, valproic acid], the clinical trial outcome [6] is listed as “failed in clinical trials” and the drug screening outcome [7] is listed as “potential treatments”.
In the case of `Oc1nc(-c2ccc(C(F)(F)F)cc2)nc2c1CSCC2` [Xav939], the iCM function ([2]; MST cocktail (MYOCD, SMAD6, TBX20) combined with FGF2 and XAV939, primary human cardiac fibroblasts, ref [536]) is listed as “spontaneous contractions and calcium transients”.
For `COc1cccc2c1C(=O)c1c(O)c3c(c(O)c1C2=O)C[C@@](O)(C(=O)CO)C[C@@H]3O[C@H]1C[C@H](N)[C@H](O)[C@H](C)O1` [doxorubicin], the “cardiotoxicity detected by model” value [8] is given as “cardiotoxic effects”.
For `NC[C@H]1O[C@H](O[C@H]2[C@H](O)[C@@H](O[C@H]3O[C@H](CO)[C@@H](O)[C@H](N)[C@H]3O)[C@H](N)C[C@@H]2N)[C@H](N)C[C@@H]1O` [tobramycin], the drug screening outcome [7] is given as “potential treatments”.
For `COc1ccc(CCN(C)CCCC(C#N)(c2ccc(OC)c(OC)c2)C(C)C)cc1OC` (stereo not shown) [verapamil], the drug screening outcome [9] is listed as “potential treatment”.
For verteporfin, the fibroblast-mediated regeneration [10] is listed as “enhance fibroblast-mediated regeneration, improving mechanical strength and reducing scarring”.
